Assay [1] is described as follows: cytotoxicity in HEK-293T cells, dose response, cytotoxicity control for BCR NF-kB inhibitor project, luminescence, B-cell screen hits (AID 489021).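 Also: HEK-293T cells carrying an NF-kB luciferase reporter; cells exposed to compound for about 14 hours before viability readout.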 It counts as functional, cell-based.
The target of assay [2] is T1, Alkaline phosphatase, tissue-nonspecific isozyme (Homo sapiens, UniProt P05186).
T1 sequence (P05186 whole entry): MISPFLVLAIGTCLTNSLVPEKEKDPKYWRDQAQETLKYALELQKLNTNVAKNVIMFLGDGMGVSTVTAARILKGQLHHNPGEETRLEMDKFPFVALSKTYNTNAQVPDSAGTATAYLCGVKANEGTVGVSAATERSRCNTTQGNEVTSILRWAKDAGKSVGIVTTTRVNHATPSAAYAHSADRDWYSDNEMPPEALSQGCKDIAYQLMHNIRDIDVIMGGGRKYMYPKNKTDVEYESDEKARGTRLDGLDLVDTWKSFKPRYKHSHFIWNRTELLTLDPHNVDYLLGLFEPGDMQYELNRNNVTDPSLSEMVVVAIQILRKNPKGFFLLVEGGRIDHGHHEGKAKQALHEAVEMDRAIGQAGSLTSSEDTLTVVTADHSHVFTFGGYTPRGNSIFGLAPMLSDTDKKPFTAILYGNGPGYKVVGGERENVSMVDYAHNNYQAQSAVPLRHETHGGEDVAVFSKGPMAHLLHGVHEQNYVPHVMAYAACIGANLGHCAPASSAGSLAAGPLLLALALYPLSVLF
Nature of the assay: human TNAP enzyme inhibitors, SAR follow-up, biochemical, luminescent, dose response (AID 1056).

Assay [3] addresses Glyceraldehyde-3-phosphate dehydrogenase (Homo sapiens, UniProt P04406).
Assay [4] has as its target T2, DNA dC->dU-editing enzyme APOBEC-3A (Homo sapiens, UniProt P31941). Nature of the assay: Dose Response confirmation of small molecule APOBEC3A DNA Deaminase Inhibitors via a fluorescence-based single-stranded DNA deaminase assay. [Related pubchem assays (depositor defined):AID493011, AID493024]. The class given is functional.
Assay [5] has as its target T3, DNA dC->dU-editing enzyme APOBEC-3G (Homo sapiens, UniProt Q9HC16). It counts as functional.
The next assay has as its target Cytochrome P450 3A4 (Homo sapiens, UniProt P08684). Conditions: Potency.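 Also: confirmatory qHTS run detecting inhibitors and substrates of CYP3A4.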
The target of a further assay is Troponin, cardiac muscle (Homo sapiens, UniProt P19429+P45379+P63316). Nature of the assay: Fluorescence-based biochemical high throughput dose response assay for activators of the calcium sensitivity of cardiac Regulated Thin Filaments (RTF). [Related pubchem assays (depositor defined):AID493008, AID493018, AID504382, AID504383]. It counts as protein-complex assay.

For assay [6], the target named is T4, RNA-binding protein pos-1 (Caenorhabditis elegans, UniProt G5EF15).
T4 sequence (G5EF15 whole entry): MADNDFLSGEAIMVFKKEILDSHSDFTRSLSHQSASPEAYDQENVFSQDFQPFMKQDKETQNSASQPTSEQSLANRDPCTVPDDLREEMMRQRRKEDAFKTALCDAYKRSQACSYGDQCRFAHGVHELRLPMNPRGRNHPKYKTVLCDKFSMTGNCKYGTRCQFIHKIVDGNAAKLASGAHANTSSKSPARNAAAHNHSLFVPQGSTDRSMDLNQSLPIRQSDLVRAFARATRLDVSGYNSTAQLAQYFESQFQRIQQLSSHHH
Nature of the assay: inhibitors of POS-1/mex-3 RNA binding, dose response, biochemical, fluorescence polarization (AID 1964).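 Also: purified POS-1 fused to maltose binding protein made in E. coli; potency of compounds blocking POS-1 binding to fluorescent RNA.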

Assay [7] deals with T5, Zinc finger protein mex-5 (Caenorhabditis elegans, UniProt Q9XUB2).
T5 sequence (Q9XUB2 whole entry): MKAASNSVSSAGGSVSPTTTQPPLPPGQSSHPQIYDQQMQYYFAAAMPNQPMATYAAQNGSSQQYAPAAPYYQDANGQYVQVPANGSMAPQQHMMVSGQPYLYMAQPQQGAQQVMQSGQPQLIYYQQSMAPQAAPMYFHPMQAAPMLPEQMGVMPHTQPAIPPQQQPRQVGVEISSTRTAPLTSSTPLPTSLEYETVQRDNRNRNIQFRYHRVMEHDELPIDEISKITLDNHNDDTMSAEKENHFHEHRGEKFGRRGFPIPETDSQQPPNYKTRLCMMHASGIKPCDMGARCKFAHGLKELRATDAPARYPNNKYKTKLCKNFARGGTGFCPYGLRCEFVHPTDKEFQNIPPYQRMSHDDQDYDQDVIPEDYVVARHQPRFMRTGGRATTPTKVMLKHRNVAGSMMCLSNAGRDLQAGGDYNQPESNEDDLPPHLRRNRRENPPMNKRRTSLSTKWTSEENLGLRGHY
In words: MEX-5/TCR-2 RNA interaction inhibitors, dose response, biochemical, C. elegans, fluorescence polarization (AID 1960). (Fluorescence polarisation rises when a labelled molecule tumbles more slowly, as on binding a larger partner.)

In assay [8] the target is T2, DNA dC->dU-editing enzyme APOBEC-3A. Nature of the assay: APOBEC3A DNA deaminase inhibitors, dose response, biochemical (AID 504722). The class given is functional.
Assay [9] concerns the target T3, DNA dC->dU-editing enzyme APOBEC-3G. In words: Dose Response confirmation of small molecule APOBEC3G DNA Deaminase Inhibitors via a fluorescence-based single-stranded DNA deaminase assay. [Related pubchem assays (depositor defined):AID493012, AID493028]. The class given is functional.
A short description of assay [10]: Luminescence Cell-Based Dose Confirmation to Identify Activators of 5'UTR Stem-Loop Driven Alpha-Synuclein mRNA Translation in H4 Neuroglioblastoma Cells. [Related pubchem assays: 1829 (Project Summary), 1814 (Primary HTS)]. The class given is functional.
The nature of assay [11]: Luminescence Cell-Based Dose Confirmation HTS to Identify Activators of 5'UTR Stem-Loop Driven Alpha-Synuclein mRNA Translation in H4 Neuroglioblastoma Cells. [Related pubchem assays: 1829 (Project Summary), 1814 (Primary HTS)]. It counts as functional.
Assay [12] in a line: Luminescence Cell-Based Dose Response to Identify Activators of 5'UTR Stem-Loop Driven Prion Protein mRNA Translation in H4-C Neuroglioblastoma Cells. [Related pubchem assays: 1829 (Project Summary), 1814 (Primary HTS)]. It counts as functional.
The nature of assay [13]: Luminescence Cell-Based Dose Response HTS to Identify Activators of Luciferase Translation or Activity in H4 […] Cells. [Related pubchem assays: 1829 (Project Summary), 1814 (Primary HTS)]. It counts as functional.
The next assay has as its system H4. In words: Luminescence Cell-Based Dose Response HTS to Identify Activators of 5'UTR Stem-Loop Driven Prion Protein mRNA Translation in H4 Neuroglioblastoma Cells. [Related pubchem assays: 1829 (Project Summary), 1814 (Primary HTS)]. The class given is functional. Conditions: Homo sapiens.
A short description of assay [14]: Luminescence Cell-Based Dose Response to Identify Activators of Luciferase Translation or Activity in H4-C Neuroglioblastoma Cells. [Related pubchem assays: 1829 (Project Summary), 1814 (Primary HTS)]. The class given is functional.
A further assay can be described thus: cells. The class given is functional.
Assay [15] is described as follows: THP-1 cell cytotoxicity, dose response, cytotoxicity control for non-replicating M. tuberculosis project (AID 489025). It counts as functional.
The target in assay [16] is Induced myeloid leukemia cell differentiation protein Mcl-1 (Homo sapiens, UniProt Q07820). The class given is functional.
A further assay concerns the target Prothrombin (Homo sapiens, UniProt P00734). In words: Thrombin 1536 HTS Dose Response Confirmation. [Related pubchem assays: 1046 (Thrombin 1536 HTS; hits were confirmed in this assay)]. It counts as functional.
For assay [17], the target named is T6, DNA repair protein RAD52 homolog (Homo sapiens, UniProt P43351).
T6 sequence (P43351 whole entry): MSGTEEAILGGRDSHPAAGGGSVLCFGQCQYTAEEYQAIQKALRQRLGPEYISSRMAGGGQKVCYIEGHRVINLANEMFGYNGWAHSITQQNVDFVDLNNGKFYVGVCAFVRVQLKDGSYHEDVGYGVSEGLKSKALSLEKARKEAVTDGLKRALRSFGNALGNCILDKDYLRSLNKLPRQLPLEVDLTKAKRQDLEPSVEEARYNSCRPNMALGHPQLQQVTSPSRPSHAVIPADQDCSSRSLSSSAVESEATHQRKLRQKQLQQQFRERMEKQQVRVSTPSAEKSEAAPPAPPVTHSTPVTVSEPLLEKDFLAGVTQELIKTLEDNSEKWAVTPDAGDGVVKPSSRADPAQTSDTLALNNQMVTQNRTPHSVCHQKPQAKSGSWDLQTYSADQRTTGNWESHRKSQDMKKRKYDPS
It counts as functional, biochemical.

The values that follow come from ChEMBL document CHEMBL1201862, “PubChem BioAssay data set” (2004).

Values joined by “and” are separate entries in the source; they are usually repeats but may differ in a detail not shown here. Equal values may be shown once. Active and inactive are the calls of the source.

Cytochrome P450 3A4, sequence (P08684 whole entry): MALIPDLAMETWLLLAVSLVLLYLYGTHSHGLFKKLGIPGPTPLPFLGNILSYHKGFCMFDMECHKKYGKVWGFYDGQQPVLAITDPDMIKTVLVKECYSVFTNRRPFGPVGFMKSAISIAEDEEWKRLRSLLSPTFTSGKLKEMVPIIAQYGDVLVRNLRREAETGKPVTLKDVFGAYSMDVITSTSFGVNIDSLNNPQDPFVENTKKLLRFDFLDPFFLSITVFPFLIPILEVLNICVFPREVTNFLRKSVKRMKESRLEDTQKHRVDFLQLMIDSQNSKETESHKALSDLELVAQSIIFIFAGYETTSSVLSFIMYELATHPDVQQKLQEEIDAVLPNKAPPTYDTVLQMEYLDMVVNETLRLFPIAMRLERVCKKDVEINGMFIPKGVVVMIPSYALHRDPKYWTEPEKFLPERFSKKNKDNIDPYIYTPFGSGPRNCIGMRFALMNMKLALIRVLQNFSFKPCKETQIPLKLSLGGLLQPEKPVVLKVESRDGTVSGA
T3 sequence (Q9HC16 whole entry): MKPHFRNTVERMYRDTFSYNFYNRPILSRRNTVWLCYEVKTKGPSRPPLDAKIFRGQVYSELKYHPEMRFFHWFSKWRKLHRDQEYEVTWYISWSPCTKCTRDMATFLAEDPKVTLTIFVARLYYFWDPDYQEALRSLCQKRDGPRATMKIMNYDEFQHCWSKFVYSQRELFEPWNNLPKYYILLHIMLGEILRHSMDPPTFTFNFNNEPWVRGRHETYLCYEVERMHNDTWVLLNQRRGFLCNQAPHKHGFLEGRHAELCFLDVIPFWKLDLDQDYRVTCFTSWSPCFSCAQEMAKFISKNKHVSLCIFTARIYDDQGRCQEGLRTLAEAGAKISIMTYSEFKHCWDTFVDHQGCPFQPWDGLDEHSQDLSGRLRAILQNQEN
T2 sequence (P31941 whole entry): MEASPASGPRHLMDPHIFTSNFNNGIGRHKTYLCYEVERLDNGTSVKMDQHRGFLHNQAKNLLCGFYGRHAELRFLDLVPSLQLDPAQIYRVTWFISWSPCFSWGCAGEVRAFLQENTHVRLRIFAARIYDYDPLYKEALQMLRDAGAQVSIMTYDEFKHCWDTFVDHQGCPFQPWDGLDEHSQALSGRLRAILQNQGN
Glyceraldehyde-3-phosphate dehydrogenase, sequence (P04406 whole entry): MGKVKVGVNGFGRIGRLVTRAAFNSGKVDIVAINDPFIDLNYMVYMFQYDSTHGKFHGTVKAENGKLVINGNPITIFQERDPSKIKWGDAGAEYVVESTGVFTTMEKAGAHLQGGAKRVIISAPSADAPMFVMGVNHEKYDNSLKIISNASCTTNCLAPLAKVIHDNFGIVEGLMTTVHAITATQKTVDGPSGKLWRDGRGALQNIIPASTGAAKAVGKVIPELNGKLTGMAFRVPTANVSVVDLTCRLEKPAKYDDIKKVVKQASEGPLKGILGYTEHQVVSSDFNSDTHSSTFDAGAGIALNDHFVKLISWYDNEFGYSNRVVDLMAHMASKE
Induced myeloid leukemia cell differentiation protein Mcl-1, sequence (Q07820 whole entry): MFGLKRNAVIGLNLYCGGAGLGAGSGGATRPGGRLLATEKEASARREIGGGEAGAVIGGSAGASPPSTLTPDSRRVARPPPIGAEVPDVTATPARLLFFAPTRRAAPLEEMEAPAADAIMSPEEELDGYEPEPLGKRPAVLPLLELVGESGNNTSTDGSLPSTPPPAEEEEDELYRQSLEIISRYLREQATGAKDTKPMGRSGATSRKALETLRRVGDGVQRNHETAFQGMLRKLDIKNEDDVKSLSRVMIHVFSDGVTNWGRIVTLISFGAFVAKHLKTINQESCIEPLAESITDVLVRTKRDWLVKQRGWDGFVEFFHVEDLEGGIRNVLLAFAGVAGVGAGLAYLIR

Broadly, the IC50 is the point on the concentration scale where inhibition reaches its midpoint. Take `Cn1c(=O)c2c(SCC(=O)Nc3ccccc3F)nc(-c3ccccc3F)nc2n(C)c1=O`: in assay [1], the IC50 was > 80 µM (inactive).
As to `O=S(=O)(Nc1cnc2ccccc2c1)c1ccc(Br)cc1OC(F)(F)F`, the IC50 in assay [2] was 1.5 µM (active); in assay [3], > 100 µM (not active).
Take `CCN(CC)c1ccc(/C=C2/C(=O)ON=C2C)cc1`: the IC50 in assay [1] is > 80 µM (inactive).
In the case of `C[N+](C)(C)CCOC(=O)C1(c2ccccc2)CCCC1`, the IC50 was 1.06 µM (active) in [4] and 1.12 µM (active) in assay [5].
With `Cc1ccc(S(=O)(=O)Nc2ccc3ccccc3c2)cc1`, the IC50 was > 100 µM (inactive) in [2] and > 100 µM (not active) in assay [3].
Usually AC50 stands for the concentration at which the activity in the assay is half-maximal. As to `COCCNc1nc(C)nc2c1nc(-c1ccccc1)n2CCN1CCCC1`, the AC50 at Cytochrome P450 3A4 is 25.1 µM (inconclusive).
What is called EC50 is the concentration that produces a half-maximal response. As to `CC(=O)N1CCc2c(sc(NC(=O)C3CCCN3S(=O)(=O)c3cccs3)c2C(N)=O)C1` (stereo unspecified), the EC50 is 18.5 µM (inactive) at Troponin, cardiac muscle; 10.2 µM (active) in assay [6]; 5.83 µM (active) in assay [7].
Take `Nn1c(COc2ccc(Cl)cc2)n[nH]c1=S`: the IC50 in assay [8] is > 100 µM (inactive); in assay [9], 2.49 µM (active).
Turning to `Cc1ccc(NC(=O)C2CCCN(c3ncccn3)C2)cc1F` (stereo unspecified), the EC50 in [10] was 0.141 µM (active); in assay [11], < 0.1 µM (active); in [12], 1.22 µM (active); in assay [13], 0.125 µM (inconclusive); with H4 it was 6.45 µM (active); in assay [14] it was 0.856 µM (active).
With `CCN(CC)c1ccc(NC(=O)c2cncc(Br)c2)cc1`, the EC50 was 0.53 µM (active) in [10]; > 12 µM (not active) in assay [12]; 1.48 µM (active) in assay [13]; 14.3 µM (active) in the assay with H4; > 12 µM (not active) in [14].
A word on the CC50: it is the concentration at which the toxic effect on the cells reaches its halfway point. As to `Cc1ccccc1OCCNc1cc(N2CC(C)NC(C)C2)ccc1[N+](=O)[O-]` (stereo unspecified), the IC50 in the assay “cells” is 12.8 µM (active). In addition, the CC50 in assay [15] was 21.4 µM (active).
For the compound `Cn1c(SCC(=O)Nc2ccc3nc(SCC(=O)N4CCCC4)sc3c2)nnc1-c1ccccc1`, the IC50 in assay [16] was 2.83 µM (active).
In the case of `CN(CC(=O)NCc1ccco1)S(=O)(=O)c1cccc2cccnc12`, the EC50 at Troponin, cardiac muscle is > 71.5 µM (inactive).
As to `COc1ccc(-c2nn(C)c(=O)c3ccccc23)cc1CNC(=O)C1CCCCC1`, the IC50 on Prothrombin is > 50 µM (not active).
Same read-out and setting: then `Fc1ccc(Oc2cnc3ccccc3n2)cc1`, with > 50 µM (not active); and `CSC1=N/C(=C\c2ccc(C)o2)C(=O)S1`, with > 50 µM (not active).
For the compound `Cc1c(C)n(C)c2ccc(C(=O)NCCCN3CCN(C)CC3)cc12`, the AC50 in [17] was 7.04 µM (active).
Take `Fc1ccc(/C=N/NC2=Nc3cccc4cccc2c34)cc1`: the EC50 was 0.278 µM (active) in assay [10]; 0.233 µM (active) in [12]; < 0.1 µM (inconclusive) in assay [13]; < 0.1 µM (active) with H4; 0.343 µM (active) in assay [14].
Consider `COc1cccc(C(=O)N/N=C/c2ccc(Oc3ccc([N+](=O)[O-])cn3)c(OC)c2)c1`, for which the IC50 in [4] is 3.44 µM (active); in assay [5], 3.84 µM (active).
`Fc1ccccc1/C=N/n1c(S)nnc1-c1cccnc1`: the results for the IC50 in [8] and in [9] were > 100 µM (inactive) and 3.16 µM (active), respectively.
Taken in the same sequence, the figures for `Cc1ccc(/C=N/n2c(S)nnc2-c2ccncc2)o1` were > 100 µM (inactive) and 6.55 µM (active).
As to `Nc1cccc2ccccc12`, the AC50 at Cytochrome P450 3A4 was 31.6 µM (inconclusive).
On the same count and under the same terms, then `CCCCC/C=C\C/C=C\C/C=C\C/C=C\CCCC(=O)O` [ARACHIDONIC ACID], with 39.8 µM (inconclusive) and 7.94 µM (inconclusive).
